Values quoted from earlier work, collected in US20050089581A1, “Magnesium-containing compositions and methods for enhancing dehydroepiandrosterone levels” (priority 2003, published 2005).

Columns and labels:
[1] = second week, 300 mg DHEA per day orally
[2] = test system: human coxsackievirus B4 strain
[3] = administration of DHEA, its esters, or salts thereof; W. Regelson et al.
platelet aggregation = details: second week, 300 mg DHEA per day orally
DHEA levels = details: oral administration

| Molecule | mean serum DHEA-S level ([1]; DHEA group, baseline 316.2, placebo 260.5+/−56.7) [µg/dL] | mean serum DHEA ([1]; treated group, baseline 5.83+/−3.9, placebo 5.58+/−4.1) [ng/mL] | mortality ([2]; infection with 100,000 plaque forming units/animal, about 90% mortality in infected animals without treatment) [%] | elevation in the number of antibody forming cells ([2]; within the animal, DHEA administered) [%] | side effects [3] | subjects with slower rate of platelet aggregation and need for higher arachidonic acid concentration to initiate aggregation (platelet aggregation) | effect on DHEA levels (DHEA levels) |
| --- | --- | --- | --- | --- | --- | --- | --- |
| C[C@]12CCC(O)CC1=CC[C@@H]1[C@@H]2CC[C@]2(C)C(=O)CC[C@@H]12 (stereo partly shown) [DHEA, 3-hydroxyandrost-5-en-17-one] | 1451.9 ± 56.7 | 28.7 ± 13.9 | 37 | 80 | mild androgenic effects and hirsutism | Four of the five test subjects |  |
| magnesium taurate |  |  |  |  |  |  | does not increase DHEA levels |
